Data taken from patent publication US11376307B2, “Compositions and methods of treating cancer with glycomimetic peptides” (SUSAVION BIOSCIENCES, INC., priority 2018, dated 2022).
“Also recorded” adds a separate entry of the source. Like-named read-outs stand apart in the source and are kept apart here.

How the values were obtained:
[1] = tested on: ID8 ovarian cancer cell line; assay: Murine model of ovarian cancer, sv6D and paclitaxel
Protocol: Combination study of sv6D and paclitaxel. (FIG. 8A) Female C57BL/6 mice were implanted with ID8 ovarian cancer cell line. […] Body weights of mice are shown as measured on day 58, after two weeks of alternate-day subcutaneous treatment with sv6D (0.1 nmol/g) or 3 intraperitoneal doses (days 45, 47 and 49) of 18 μg/g paclitaxel in cremophor. […] (FIG. 8B) Alternate-day injections of sv6D were initiated on day 50 with peptide alone or on day 100 to mice that were previously treated with paclitaxel between day 45 and 49. […] (FIG. 8C) Kaplan-Meier survival curves for mice treated with paclitaxel, sv6D or a combination of the two in which alternate-day subcutaneous injections of sv6D was started 50 days after paclitaxel treatment.
Cells of an ovarian epithelial cancer line, ID8 [110], were implanted into the peritoneal cavity of female C57BL/6 mice at a dose of 6×10^6 cells. All animals were weighed at least weekly throughout these studies. Accumulation of ascites was monitored by increase in body weight, and animals were euthanized when end-stage behavior was expressed. […] Kaplan-Meier survival curves were analyzed by the Mantel-Cox log-rank test.
A murine ovarian cancer cell line (ID8) was implanted into the peritoneal cavity of C57BL/6 female mice on day 0. […] Progression of the cancer was monitored by body weight of animals as an indication of ascites accumulation.

human ASGPR-1 = molecular target: T1, human ASGPR-1 (Homo sapiens, UniProt P07306); assay: Solid-phase binding assay with recombinant receptors
T1 construct: The extracellular domains of receptors, which were fused with the Fc domain of immunoglobulin IgG; purchased R&D Systems
T1 sequence (P07306 62-291 limits assumed): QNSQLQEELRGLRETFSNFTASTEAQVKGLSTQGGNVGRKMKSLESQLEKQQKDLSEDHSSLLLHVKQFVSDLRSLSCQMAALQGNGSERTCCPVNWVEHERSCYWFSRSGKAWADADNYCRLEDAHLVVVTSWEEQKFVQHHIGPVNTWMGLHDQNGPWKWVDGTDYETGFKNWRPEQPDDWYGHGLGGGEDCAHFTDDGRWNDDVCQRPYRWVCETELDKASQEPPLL
Protocol: (§1) Binding Assays Solid-phase binding assays were performed with streptavidin-, protein A/G-, or Nickel-coated microtiter plates (Pierce). His-tagged or Fc-fusion recombinant receptors (R&D Systems, Minneapolis, Minn.) were reconstituted in PBS. Sufficient receptors were added to wells to saturate the coating. His-tagged receptors were added to each well at a 5-fold excess over the stated capacity of the Ni coating to minimize non-specific binding of the peptide. Wells were washed three times with binding buffer (25 mM Tris HCl, pH 7.4, 150 mM NaCl, 0.05% Tween-20) to remove unbound receptor and 50 μL of 2 μM biotinylated peptide in binding buffer were added and allowed to incubate for 1 h. The wells were washed four times with binding buffer and then incubated with 50 μL of 1 μg/mL streptavidin conjugated with peroxidase (Sigma-Aldrich) for 1 h. The wells were washed five times with binding buffer and 50 μL of peroxidase substrate (1-Step™ Ultra TMB, Pierce) were added. After several minutes to allow color development, the reaction was stopped with 50 μL 1 M H3PO4 and absorbance was measured at 450 nm. Bound streptavidin was quantitated by the specific activity of peroxidase (absorbance/ng protein conjugate/min) under the conditions of the assay.
(§2) Solid-phase binding assays were performed with recombinant human receptors. Three variations of the binding assay were used in this study, all of which allowed the arms of the tetravalent peptide to have full flexibility. (i) Biotinylated peptide was bound in microtiter wells coated with streptavidin and incubated with recombinant human receptors. After extensive washing, the bound receptor was measured by peroxidase conjugated to a receptor-specific antibody. (ii) The extracellular domains of receptors, which were fused with the Fc domain of immunoglobulin IgG, were bound in wells coated with protein A/G. Biotinylated peptide was incubated with the receptors and, after extensive washing, bound peptide was measured with streptavidin conjugated with peroxidase. Or (iii), recombinant receptors with a poly-His tag were bound to Nickel-coated wells and incubated with biotinylated peptide. svL4 and sv6D contain His residues (FIGS. 1A, 1C) and can bind to the Ni coating, which was minimized by adding sufficient poly-His-tagged receptor to saturate the Ni coating.

ASGPR-1 = molecular target: T2, ASGPR-1 (Homo sapiens, UniProt P07306); conditions: ref [49]; cited from earlier work
T2 sequence (P07306 1-291): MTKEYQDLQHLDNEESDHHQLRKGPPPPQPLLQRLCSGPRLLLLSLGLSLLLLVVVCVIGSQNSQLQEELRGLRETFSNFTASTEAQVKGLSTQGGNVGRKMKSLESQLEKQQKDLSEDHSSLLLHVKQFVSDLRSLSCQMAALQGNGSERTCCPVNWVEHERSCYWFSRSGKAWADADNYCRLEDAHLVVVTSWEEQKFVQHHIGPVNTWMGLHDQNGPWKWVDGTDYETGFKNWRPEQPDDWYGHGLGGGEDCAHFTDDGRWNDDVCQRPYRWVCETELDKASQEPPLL

STING pathway = assay: THP1-Dual reporter cells, secreted luciferase; assay type: cell-based, human; conditions: medium of THP1 reporter cells
Protocol: FIGS. 12A-12B. Conjugation with cyclic dinucleotide. (FIG. 12A) The cyclic dinucleotide, c[G(2′,5′)p-2′-AHC-A(3′,5′)p] (CDN, AHC=6-aminohexylcarbamoyl), was conjugated to N-acetylated-sv6D by a carbodiimide reaction. (FIG. 12B) The conjugate delivers the activation factor at much lower concentrations. Human THP1 monocytes, engineered to detect activation of the type 1 IFN pathway (THP1-Dual™ Cells, InvivoGen, San Diego, Calif.), were incubated 20 hours with sv6D in RPMI 1640 medium containing 10% fetal bovine serum after adding the peptide CDN conjugate. The medium was recovered and then incubated with the luciferase detection reagent (Quanti-Luc™, InvivoGen) to assay for luciferase secreted in response to activation of the STING pathway. Photons were detected with a spectrofluorometer. […] The conjugate targets M2 macrophages and tumor cells that express CLEC10A and thus would produce IFN-β within the tumor microenvironment. […]
The ability of sv6D-CDN conjugates to induce activation of the STING pathway for production of type 1 interferons (IFN-α/β) was tested by incubating human THP1 monocytes that were genetically engineered as reporter cells (InvivoGen, San Diego, Calif.), with the conjugate. […] However, luciferase was detected in the medium of cells incubated with nanomolar concentrations of sv6D-CDN conjugate.

STING protein = STING protein (Homo sapiens, UniProt Q86WV6); conditions: refs [108,109]; cited from earlier work
[2] = ref [90], cited from earlier work
[3] = molecular target: T3, recombinant human CLEC10A (Homo sapiens, UniProt Q8IUN9); assay: Solid-phase binding assay with recombinant receptors; conditions: biotinylated tetravalent peptide
T3 construct: The extracellular domains of receptors, which were fused with the Fc domain of immunoglobulin IgG; purchased R&D Systems
T3 sequence (Q8IUN9 61-316 limits assumed): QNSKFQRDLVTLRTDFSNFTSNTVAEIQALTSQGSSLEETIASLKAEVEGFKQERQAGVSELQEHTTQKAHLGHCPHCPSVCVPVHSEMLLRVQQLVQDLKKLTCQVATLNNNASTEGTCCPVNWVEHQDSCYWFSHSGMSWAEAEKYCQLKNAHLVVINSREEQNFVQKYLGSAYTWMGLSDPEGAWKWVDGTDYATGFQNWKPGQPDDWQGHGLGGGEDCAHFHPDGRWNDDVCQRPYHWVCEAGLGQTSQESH
Protocol: as §1, §2

peritoneal immune cells = assay: Expansion of peritoneal cells after subcutaneous injection, flow cytometry; assay type: in vivo, C57BL/6 mice; conditions: 1 nmol/g s.c. on days 0, 2, 4; cells 24 h after each injection
Protocol: FIGS. 7A-7D. Expansion of peritoneal cells in C57BL/6 mice. Mice were injected subcutaneously at a dose of 1 nmol/g body weight of svL4, sv6D or svC1. Cells in each population recovered in a peritoneal lavage are expressed as cell counts (in thousands). Cells from three mice in each treatment group were pooled for analysis. The number of cells in each population was normalized to the average recovery of total cells from all groups. For each cell type, the left-hand, middle and right-hand set of bars represent samples from mice treated with svL4, sv6D or svC1, respectively. Mice were injected on days 0, 2 and 4, and cells were collected 24 h after each injection. Day 1, open bar; day 3, grey bar; day 5, black bar. Populations that express activation markers are indicated by an asterisk.
Flow Cytometry Healthy C57BL/6 male mice, 10 weeks old, were injected subcutaneously with peptides on alternate days. Peritoneal cells were isolated from mice 24 h after dosing by injecting ice cold PBS (containing 3% FBS) into the peritoneal cavity, gently massaging the abdomen, and then collecting the fluid, which was transferred into K2EDTA-treated tubes for evaluation of specific biomarkers. Cells from three mice in each group were pooled, counted and divided among FACS tubes (1×10^6 cells per tube). Cells were washed once in PBS containing 3% FBS, then stained with 0.25 to 1 μg of fluorescently conjugated antibody per 10^6 cells in 100 μL of buffer as recommended by the manufacturer (Table 1).
Cells were incubated with the antibodies for 30 min at 4° C. in the dark. Following staining, the cells were washed two times with PBS/3% FBS and immediately analyzed with a MACSQuant flow cytometer (Miltenyi Biotech, Inc., San Diego, Calif.). Compensation was performed using single stain tubes for each color present in the analysis as well as an unstained control sample. Collection of flow cytometric data and analysis with FlowJo software, version 10.0.6 (FlowJo, LLC, Ashland, Oreg.) were performed by Biomodels LLC (Watertown, Mass.).
To examine whether increases occurred in mature immune cells, peritoneal cells from Balb/c and C57BL/6 mice were analyzed by flow cytometry after cells were stained with the markers listed in Table 1. […] To explore this observation more extensively, svL4 or sv6D was injected into C57BL/6 mice on day 0, 2 or 4. Peritoneal cells were examined by flow cytometry 24 h after each injection. Shown in FIGS. 7A-7D are results expressed as cell counts for F4/80 CD11b CD86 (mature, active macrophages); CD11c (DCs); CD11c CD86 (activated DCs); CD4 CD69 (activated T cells); CD8 CD69 (activated cytotoxic T cells); NK1.1 CD3^+ CD69 (activated NKT cells); NK1.1 CD3^− CD69 (activated NK cells); CD19 (B cells); and CD19 CD73 CD80 CD273 (memory B cells). The numbers of these mature, activated cells continued to increase with each injection.

[4] = photodynamic, read-out: IC50 concentration for cell killing

Chain of STING protein (Q86WV6 whole entry): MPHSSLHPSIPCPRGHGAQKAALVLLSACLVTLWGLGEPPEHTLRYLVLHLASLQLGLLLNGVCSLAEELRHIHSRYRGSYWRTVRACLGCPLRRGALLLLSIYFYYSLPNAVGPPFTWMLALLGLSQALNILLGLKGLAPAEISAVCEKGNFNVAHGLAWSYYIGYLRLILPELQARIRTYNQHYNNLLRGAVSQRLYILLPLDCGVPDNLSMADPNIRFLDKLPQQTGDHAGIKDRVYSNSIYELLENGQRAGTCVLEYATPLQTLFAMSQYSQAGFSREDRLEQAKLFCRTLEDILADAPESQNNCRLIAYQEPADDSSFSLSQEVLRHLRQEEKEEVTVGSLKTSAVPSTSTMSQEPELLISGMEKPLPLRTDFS

Molecule: CC(=O)O[C@H]1C(=O)[C@@]2(C)[C@H]([C@H](OC(=O)c3ccccc3)[C@]3(O)C[C@H](OC(=O)[C@H](O)[C@@H](NC(=O)c4ccccc4)c4ccccc4)C(C)=C1C3(C)C)[C@]1(OC(C)=O)CO[C@@H]1C[C@@H]2O [paclitaxel, reference compound]
- Median survival ([1]; single agent, sv6D 0.1 nmol/g, control median end-stage day 122): approximately 141 days
- Body weight (ascites accumulation) after two weeks of treatment ([1]; treatment from day 45, sv6D 0.1 nmol/g s.c. alternate days, paclitaxel 18 μg/g i.p. x3): had not significantly increased

Molecule: Asialofetuin: a multi-glycosylated protein [reference compound]
- Inhibition of binding of svL4 to ASGPR-1 (human ASGPR-1; asialofetuin at 75 μM, svL4 0.2 μM): 53%
- IC50 (ASGPR-1): 45600 ± 2700 nM

Molecule: c[G(2′,5′)p-2′-AHC-A(3′,5′)p] [CDN]
- Concentration range needed to detect luciferase activity (STING pathway): micromolar concentrations
- Concentration range needed to detect luciferase activity (STING pathway; listed as cyclic dinucleotides): micromolar range
- Kd (STING protein): ~5000 nM

Molecule: chlorin p6
- IC50 ([2]; exposed to red light, read-out: IC50 for photosensitized cell killing): 30 nM
- IC50 [2, 4]: ~10 nM

Molecule: purpurin-18
- IC50 [2, 4]: ~10 nM

Molecule: svC1: subset of svL4: the N-terminal half of the sequence; does not bind CLEC10A, used as control (VQATQSGGGS)
- Binding to ASGPR-1 (human ASGPR-1; biotinylated tetravalent peptide): near the level of blank wells
- Binding to CLEC10A [3]: near the level of blank wells; also recorded: does not bind
- Change in mature, active peritoneal immune cell populations (peritoneal immune cells): did not increase significantly
